Experiments:
VEGF = assay: Western blotting of VEGF expression in isolated rat pulmonary artery ring, short-term (acute) hypoxia; type: cell-based; details: isolated pulmonary artery
How it was run: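 Isolated rat (male Wistar) pulmonary artery kept under normoxia (20% O2) or hypoxia (1% O2) at 37° C. for 24 hrs. Protein extracted, resolved on 10% SDS-PAGE ([…]), blotted to PVDF, probed with specific antibodies and ECL-detected, β-actin as loading control.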

sGCα1 = assay: Western blotting of sGCα1 expression in isolated pulmonary artery, short-term hypoxia; type: cell-based, rat
Protocol: In our in vitro short-term experiment, isolated rat pulmonary artery was grown under normoxia (20% O2) or hypoxia (1% O2) at 37° C. for 24 hrs as was previously done (Wu BN, et al. Int J Immunopathol Pharmacol 24:925, 2011). The heart weight and body weight ratio (HW/BW) of the rats treated with one of SPAAX-1, SPAAX-1 RX complex, Sildenafil or Sildenafil RX complex each measured on the 21st hypoxic day. All animal care and the experimental protocols of this study were approved by the Animal Care and Use Committee of the Kaohsiung Medical University. Male Wistar rats (200-250 g), provided by the National Laboratory Animal Breeding and Research Center (Taipei, Taiwan), were housed under constant temperature and controlled illumination. Food and water were available ad libitum.
Whole right lung tissues of hypoxia-treated and untreated rats were isolated and cut into small strips and placed into an extraction buffer (Tris 10 mM, pH 7.0, NaCl 140 mM, PMSF 2 mM, DTT 5 mM, NP-40 0.5%, pepstatin A 0.05 mM and leupeptin 0.2 mM) for protein extraction, and then centrifuged at 12,500 g for 30 min. To measure the expression levels of the proteins, the total proteins were extracted and Western blotting analysis was performed as described previously (Bivalacqua T J, et al., 2013, TJ PLoSONE 8: e68028. doi:10.1371/journal. pone.0068028). […]

hypoxic rats [1] = assay: Hemodynamics of rats with hypoxic PAH, chronic hypoxia 21 days; type: in vivo, rat; details: 5 mg/kg/day, p.o.
From the text: Int J Immunopathol Pharmacol 24:925, 2011). The heart weight and body weight ratio (HW/BW) of the rats treated with one of […] complex, Sildenafil or Sildenafil RX complex each measured on the 21st hypoxic day. All animal care and the experimental protocols of this study were approved by the Animal Care and Use Committee of the Kaohsiung Medical University. Male Wistar rats (200-250 g), provided by the National Laboratory Animal Breeding and Research Center (Taipei, Taiwan), were housed under constant temperature and controlled illumination. Food and water were available ad libitum. Normoxic rats were housed in room temperature air at normal atmospheric pressure (760 mm Hg). […] After completion of the exposure, tissues were prepared as indicated for contraction measurements, Western blot analysis, RNA extraction, or morphological analysis. […] Their breathing was normal and their body temperature was maintained at 37° C. […] The animals were then sacrificed by the administration of an overdose of urethane.

hypoxic rats [2] = assay: Pulmonary artery wall thickness and muscularization (HE staining) after long-term hypoxia; type: in vivo, rat
Protocol: (§1) The right lobes of the rat lungs and heart of six rats from each group were cut and soaked in formalin, dehydrated through graded alcohols, and embedded in paraffin wax. The lung tissue specimens fixed with formalin (4%) were embedded in paraffin for one hour at 4° C., cut into 4-μm-thick sections, and subjected to H&E staining before examination by light microscope. In our histopathological study, we measured the thickening of the medial wall of the small intrapulmonary arteries under an Eclipse TE2000-S (Nikon) microscope. In the heart tissues, the 4-μm-thick paraffin sections were cut from paraffin-embedded tissue blocks and de-paraffinized by immersion in xylene and rehydrated as previously described (Bivalacqua T J, et al., PLoSONE 8: e68028. doi:10.1371/journal. pone.0068028). The slices were then dyed with H&E. After gently rinsing with water, each slide was dehydrated through graded alcohols and finally soaked in xylene twice. The relative cardiac weight of right ventricle (RV)/[left ventricle (LV)+intraventricular septum (S)] ratio (i.e. right heart index) was calculated using right ventricle/left ventricle+septum (RV/LV+S). Measurements were obtained with Histolab software (Microvision Instruments, Evry, France).

hypoxic rats [3] = assay: Right ventricular hypertrophy (RV/LV+S, right heart index) after long-term hypoxia; type: in vivo, rat
Protocol: as §1

eNOS = assay: Immunohistochemistry of eNOS in pulmonary artery wall after long-term hypoxia; type: in vivo, rat
Protocol: For histological analysis, the rat pulmonary right lung sections or pulmonary artery were fixed in 4% formaldehyde for 1 hour at 4° C. After washing with phosphate buffer saline (PBS), they were sent for paraffin-embedded serial-sections. Serial cross-sections 7 μm thick were obtained from the cross-section of each pulmonary artery. Tissue sections were deparaffinized and rehydrated in an ethanol series. After tissue rehydration, endogenous peroxidase activity was quenched with 3% hydrogen peroxide for 30 minutes, and the sections were gently washed in PBS. Non-specific binding was blocked by incubation with 1% nonimmune bovine serum albumin (BSA) in PBS for 30 minutes at room temperature.
The tissue sections were incubated for 1 hour at room temperature with antibody against VEGF (ab1442, Millipore) or against eNOS (ab5589, Abcam) diluted 1:200 in PBS with 1% BSA. After being washed with PBS, the sections were incubated for 1 hour at room temperature with biotinylated goat antibody against rabbit (Dako, E-0432) and diluted 1:200 in PBS for 30 minutes at room temperature. The reaction was visualized by the addition of 3-3-diaminobenzidine (DAB) in a working solution of DAB substrate kit for peroxidase (vector lab, SK-4100) at room temperature for 5 minutes. The sections were washed in PBS for 10 minutes between each step, and counterstained with haematoxylin. […]

PDE5A = details: hypoxia 21 days; % of the normal level; hypoxia 43.8±12.6%

Question: What does the source list for `Cn1c(=O)c2c(ncn2CCN2CCN(c3ccccc3Cl)CC2)n(C)c1=O.O=C1O[C@H]([C@@H](O)CO)C(O)=C1O` [SPAAX-1 ascorbate complex, 7-[2-[4-(2-chlorobenzene)piperazinyl]ethyl]-1,3-dimethylxanthine.ascorbic acid]?
Answer: VEGF in acute hypoxia (VEGF): inhibited; SGC-a in hypoxia (sGCα1): neither SPAAX-1 ascorbate complex nor Sildenafil ascorbate complex significantly affected; BW (body weight) (hypoxic rats [1]): 28.8 ± 7.9 g; MPAP (mean pulmonary arterial pressure) (hypoxic rats [1]; normoxia 12.9 ± 0.9, hypoxia 26.5 ± 0.6): 16.9±1.1 mmHg; Small pulmonary arterial morphology (<150 μm) (hypoxic rats [2]; hypoxia 21 days, 5 mg/kg/day): highly improved; hypoxia-induced pulmonary artery wall thickness (hypoxic rats [2]; hypoxia 21 days, 5 mg/kg/day, hypoxia 165.8±5.4%): inhibited; muscularizations of distal pulmonary artery (HE staining) (hypoxic rats [2]; hypoxic rats, versus vehicle only): significantly lower; thickness of Right ventricular (hypoxic rats [3]; compared to the hypoxia state): reduced; right heart index, RV/(LV+S) weight ratio (hypoxic rats [3]; hypoxia 21 days, relative to normoxia rats, hypoxia 184.6±0.7%): 117.4±2.6%; eNOS immunostaining reactivity of pulmonary artery (eNOS): restored the decay of eNOS; PDE5A expression in lung tissue (PDE5A): 76.9±4.9%

From patent US20150306107A1, “SAA Derivative Compound Restores eNOS And Inhibits Oxidative Stress-Induced A Diseases In Hypoxia” (JANSFAT BIOTECHNOLOGY CO., LTD., priority 2014, published 2015)
